Results taken from the kinase profiling compilation of Christmann-Franck et al. (2016).

Legend:
Assay in all cases: KINOMEscan competition binding
Details in all cases: compound 10.0 µM
[1] = system: ABL1 (human), P00519 [Y253F]
AKT3 (human) = AKT3 (human) (UniProt Q9Y243)
BMX (human) = BMX (human) (UniProt P51813)
CDK5 (human) = CDK5 (human) (UniProt Q00535)
CDKL3 (human) = CDKL3 (human) (UniProt Q8IVW4)
CLK4 (human) = CLK4 (human) (UniProt Q9HAZ1)
CSNK1A1L (human) = CSNK1A1L (human) (UniProt Q8N752)
Sequence of CSNK1A1L (human) (Q8N752 whole entry, looked up): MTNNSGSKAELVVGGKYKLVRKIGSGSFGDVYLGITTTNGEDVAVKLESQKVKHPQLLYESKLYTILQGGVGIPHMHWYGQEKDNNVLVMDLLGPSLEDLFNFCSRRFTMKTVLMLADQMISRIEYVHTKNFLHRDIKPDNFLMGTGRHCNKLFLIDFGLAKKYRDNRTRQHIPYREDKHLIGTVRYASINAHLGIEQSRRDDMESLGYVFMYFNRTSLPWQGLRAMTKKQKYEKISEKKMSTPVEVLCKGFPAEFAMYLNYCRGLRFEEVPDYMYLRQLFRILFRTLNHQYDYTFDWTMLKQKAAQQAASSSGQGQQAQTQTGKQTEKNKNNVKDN

CSNK1E (human) = CSNK1E (human) (UniProt P49674)
CSNK2A1 (human) = CSNK2A1 (human) (UniProt P68400)
[2] = system: EGFR (human), P00533 [G719C]
EPHA3 (human) = EPHA3 (human) (UniProt P29320)
EPHA8 (human) = EPHA8 (human) (UniProt P29322)
ERBB3 (human) = ERBB3 (human) (UniProt P21860)
Sequence of ERBB3 (human) (P21860 whole entry, looked up): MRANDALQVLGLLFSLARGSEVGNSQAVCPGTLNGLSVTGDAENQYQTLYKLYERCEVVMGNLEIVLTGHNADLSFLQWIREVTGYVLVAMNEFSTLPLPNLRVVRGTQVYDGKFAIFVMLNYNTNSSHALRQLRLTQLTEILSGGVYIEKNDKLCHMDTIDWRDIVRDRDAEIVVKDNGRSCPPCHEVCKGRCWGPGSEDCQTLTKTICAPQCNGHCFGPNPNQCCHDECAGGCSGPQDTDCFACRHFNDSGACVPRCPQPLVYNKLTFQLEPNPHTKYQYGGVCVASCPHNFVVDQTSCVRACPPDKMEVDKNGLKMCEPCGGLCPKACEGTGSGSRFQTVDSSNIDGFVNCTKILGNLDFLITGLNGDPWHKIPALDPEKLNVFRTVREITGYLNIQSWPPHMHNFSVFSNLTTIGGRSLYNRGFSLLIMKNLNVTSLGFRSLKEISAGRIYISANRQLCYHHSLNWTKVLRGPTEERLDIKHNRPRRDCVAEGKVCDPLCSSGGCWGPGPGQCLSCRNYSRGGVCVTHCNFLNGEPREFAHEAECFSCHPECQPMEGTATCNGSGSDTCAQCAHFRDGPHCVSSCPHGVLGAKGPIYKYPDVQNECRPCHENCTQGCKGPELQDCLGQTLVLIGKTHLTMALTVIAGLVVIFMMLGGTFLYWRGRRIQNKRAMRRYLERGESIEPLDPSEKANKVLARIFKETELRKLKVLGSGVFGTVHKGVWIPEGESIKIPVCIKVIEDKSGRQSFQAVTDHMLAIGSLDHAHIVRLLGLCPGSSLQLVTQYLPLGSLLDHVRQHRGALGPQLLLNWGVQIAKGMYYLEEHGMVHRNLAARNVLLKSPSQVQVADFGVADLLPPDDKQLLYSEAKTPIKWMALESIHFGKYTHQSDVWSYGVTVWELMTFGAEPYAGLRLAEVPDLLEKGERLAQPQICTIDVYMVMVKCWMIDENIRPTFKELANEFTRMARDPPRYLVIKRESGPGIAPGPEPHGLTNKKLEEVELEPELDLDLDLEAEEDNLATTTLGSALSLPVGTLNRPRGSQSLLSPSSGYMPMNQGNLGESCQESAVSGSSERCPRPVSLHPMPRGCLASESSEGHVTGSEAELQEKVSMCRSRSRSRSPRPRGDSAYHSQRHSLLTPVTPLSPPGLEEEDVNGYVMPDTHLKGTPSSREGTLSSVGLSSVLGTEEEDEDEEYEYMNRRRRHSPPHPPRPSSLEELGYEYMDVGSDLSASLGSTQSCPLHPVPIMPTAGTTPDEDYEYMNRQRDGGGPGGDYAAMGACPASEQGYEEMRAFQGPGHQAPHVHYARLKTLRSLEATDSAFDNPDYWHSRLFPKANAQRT

FER (human) = FER (human) (UniProt P16591)
[3] = system: FLT3 (human), P36888 [R834Q]
KIT (human) = KIT (human) (UniProt P10721)
MAP2K2 (human) = MAP2K2 (human) (UniProt P36507)
MAP3K11 (human) = MAP3K11 (human) (UniProt Q16584)
MAP3K7 (human) = MAP3K7 (human) (UniProt O43318)
MAP4K3 (human) = MAP4K3 (human) (UniProt Q8IVH8)
MARK4 (human) = MARK4 (human) (UniProt Q96L34)
MINK1 (human) = MINK1 (human) (UniProt Q8N4C8)
MYLK (human) = MYLK (human) (UniProt Q15746)
MYLK2 (human) = MYLK2 (human) (UniProt Q9H1R3)
MYLK3 (human) = MYLK3 (human) (UniProt Q32MK0)
MYLK4 (human) = MYLK4 (human) (UniProt Q86YV6)
Sequence of MYLK4 (human) (Q86YV6 whole entry, looked up): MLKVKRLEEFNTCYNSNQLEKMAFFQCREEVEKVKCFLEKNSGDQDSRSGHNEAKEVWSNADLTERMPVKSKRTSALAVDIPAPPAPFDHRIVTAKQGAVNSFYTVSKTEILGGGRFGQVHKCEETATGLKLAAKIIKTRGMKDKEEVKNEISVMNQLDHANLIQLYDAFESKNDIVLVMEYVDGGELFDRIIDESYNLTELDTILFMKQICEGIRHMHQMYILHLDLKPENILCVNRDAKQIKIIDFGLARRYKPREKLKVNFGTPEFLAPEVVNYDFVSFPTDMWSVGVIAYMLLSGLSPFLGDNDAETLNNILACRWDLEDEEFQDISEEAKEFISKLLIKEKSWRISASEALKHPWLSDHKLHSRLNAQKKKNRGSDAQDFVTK

NLK (human) = NLK (human) (UniProt Q9UBE8)
PAK2 (human) = PAK2 (human) (UniProt Q13177)
PHKG1 (human) = PHKG1 (human) (UniProt Q16816)
PKN2 (human) = PKN2 (human) (UniProt Q16513)
PKN3 (M.tuberculosis) = PKN3 (M.tuberculosis) (UniProt Q6P5Z2)
PRKCD (human) = PRKCD (human) (UniProt Q05655)
Sequence of PRKCD (human) (Q05655 whole entry, looked up): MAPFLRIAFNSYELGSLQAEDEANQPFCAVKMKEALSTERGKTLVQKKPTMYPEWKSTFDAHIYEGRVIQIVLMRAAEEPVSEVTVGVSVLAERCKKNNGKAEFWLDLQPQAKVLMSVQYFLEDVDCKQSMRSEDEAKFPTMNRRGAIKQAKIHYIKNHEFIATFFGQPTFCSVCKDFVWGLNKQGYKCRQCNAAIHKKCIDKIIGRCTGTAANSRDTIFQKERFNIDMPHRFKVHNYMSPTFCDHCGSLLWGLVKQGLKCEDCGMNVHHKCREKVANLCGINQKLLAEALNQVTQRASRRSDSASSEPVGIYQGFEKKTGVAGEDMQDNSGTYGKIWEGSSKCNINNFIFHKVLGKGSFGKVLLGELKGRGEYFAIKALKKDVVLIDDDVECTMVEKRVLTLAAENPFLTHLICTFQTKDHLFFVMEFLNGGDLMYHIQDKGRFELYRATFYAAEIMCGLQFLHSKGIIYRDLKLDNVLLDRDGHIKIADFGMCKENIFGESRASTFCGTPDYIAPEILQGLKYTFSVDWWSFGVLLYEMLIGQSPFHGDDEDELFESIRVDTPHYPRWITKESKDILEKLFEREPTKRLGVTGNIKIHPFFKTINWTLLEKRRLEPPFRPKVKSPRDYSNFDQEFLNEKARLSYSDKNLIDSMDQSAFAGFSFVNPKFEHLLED

[4] = system: RET (human), P07949 [V804M]
Sequence of RET (human), P07949 [V804M] (P07949 whole entry V804M, looked up): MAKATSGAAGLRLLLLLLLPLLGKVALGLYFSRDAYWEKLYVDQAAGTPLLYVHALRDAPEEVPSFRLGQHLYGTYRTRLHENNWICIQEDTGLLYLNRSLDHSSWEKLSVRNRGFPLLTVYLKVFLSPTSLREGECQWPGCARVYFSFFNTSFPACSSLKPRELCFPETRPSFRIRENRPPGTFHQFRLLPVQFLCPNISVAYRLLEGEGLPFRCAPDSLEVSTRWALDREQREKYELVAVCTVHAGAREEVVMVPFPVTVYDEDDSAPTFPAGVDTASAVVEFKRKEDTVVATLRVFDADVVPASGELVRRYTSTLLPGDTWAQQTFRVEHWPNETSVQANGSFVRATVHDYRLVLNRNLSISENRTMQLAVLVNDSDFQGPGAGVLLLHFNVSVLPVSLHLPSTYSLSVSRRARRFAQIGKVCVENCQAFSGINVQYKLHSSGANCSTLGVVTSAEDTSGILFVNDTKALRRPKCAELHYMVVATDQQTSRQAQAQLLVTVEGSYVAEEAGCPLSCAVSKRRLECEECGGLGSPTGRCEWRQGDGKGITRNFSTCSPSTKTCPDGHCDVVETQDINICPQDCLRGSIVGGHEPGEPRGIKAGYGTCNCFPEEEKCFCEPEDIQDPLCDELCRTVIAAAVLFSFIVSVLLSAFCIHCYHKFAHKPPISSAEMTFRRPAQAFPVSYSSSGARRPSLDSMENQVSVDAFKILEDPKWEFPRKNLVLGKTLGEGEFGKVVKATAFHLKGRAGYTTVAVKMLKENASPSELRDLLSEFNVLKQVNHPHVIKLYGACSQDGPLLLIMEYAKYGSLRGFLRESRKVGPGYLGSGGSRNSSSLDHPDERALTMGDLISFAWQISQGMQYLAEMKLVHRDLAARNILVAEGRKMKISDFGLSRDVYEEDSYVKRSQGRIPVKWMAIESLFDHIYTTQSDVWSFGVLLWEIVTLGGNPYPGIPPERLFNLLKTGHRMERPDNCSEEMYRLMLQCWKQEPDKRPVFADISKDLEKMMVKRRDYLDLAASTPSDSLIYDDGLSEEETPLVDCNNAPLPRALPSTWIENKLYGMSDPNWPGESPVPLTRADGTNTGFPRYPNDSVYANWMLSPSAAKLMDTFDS

RIPK2 (human) = RIPK2 (human) (UniProt O43353)
RPS6KA2 KD2 (human) = RPS6KA2 KD2 (human) (UniProt Q15349)
SGK110 (human) = SGK110 (human) (UniProt P0C264)
Sequence of SGK110 (human) (P0C264 whole entry, looked up): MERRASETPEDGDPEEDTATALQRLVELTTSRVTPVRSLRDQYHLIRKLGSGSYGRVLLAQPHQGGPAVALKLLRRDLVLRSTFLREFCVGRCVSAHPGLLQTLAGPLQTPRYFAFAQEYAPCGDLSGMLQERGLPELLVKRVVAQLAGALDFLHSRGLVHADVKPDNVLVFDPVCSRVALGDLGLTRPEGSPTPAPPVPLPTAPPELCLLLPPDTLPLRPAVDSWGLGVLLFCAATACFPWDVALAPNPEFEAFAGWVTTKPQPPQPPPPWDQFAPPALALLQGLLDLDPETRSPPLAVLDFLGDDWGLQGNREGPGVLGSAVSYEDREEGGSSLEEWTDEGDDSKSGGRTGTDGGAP

SIK2 (human) = SIK2 (human) (UniProt Q9H0K1)
STK17B (human) = STK17B (human) (UniProt O94768)
TIE1 (human) = TIE1 (human) (UniProt P35590)
TLK1 (human) = TLK1 (human) (UniProt Q9UKI8)
TSSK1B (human) = TSSK1B (human) (UniProt Q9BXA7)
WEE1 (human) = WEE1 (human) (UniProt P30291)

Sequence of AKT3 (human) (Q9Y243 whole entry, looked up): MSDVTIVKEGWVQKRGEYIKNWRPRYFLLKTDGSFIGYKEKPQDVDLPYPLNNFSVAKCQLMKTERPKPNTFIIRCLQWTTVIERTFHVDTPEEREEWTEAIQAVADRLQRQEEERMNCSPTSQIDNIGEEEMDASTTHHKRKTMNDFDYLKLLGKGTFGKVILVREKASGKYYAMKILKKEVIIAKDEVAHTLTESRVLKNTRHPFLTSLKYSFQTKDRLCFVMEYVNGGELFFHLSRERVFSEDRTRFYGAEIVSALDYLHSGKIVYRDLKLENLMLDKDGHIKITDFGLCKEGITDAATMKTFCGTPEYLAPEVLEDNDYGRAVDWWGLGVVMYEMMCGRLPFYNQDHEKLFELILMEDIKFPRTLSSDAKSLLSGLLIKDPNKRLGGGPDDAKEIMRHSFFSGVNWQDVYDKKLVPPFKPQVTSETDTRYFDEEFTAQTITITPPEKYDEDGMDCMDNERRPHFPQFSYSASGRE
Sequence of CDK5 (human) (Q00535 whole entry, looked up): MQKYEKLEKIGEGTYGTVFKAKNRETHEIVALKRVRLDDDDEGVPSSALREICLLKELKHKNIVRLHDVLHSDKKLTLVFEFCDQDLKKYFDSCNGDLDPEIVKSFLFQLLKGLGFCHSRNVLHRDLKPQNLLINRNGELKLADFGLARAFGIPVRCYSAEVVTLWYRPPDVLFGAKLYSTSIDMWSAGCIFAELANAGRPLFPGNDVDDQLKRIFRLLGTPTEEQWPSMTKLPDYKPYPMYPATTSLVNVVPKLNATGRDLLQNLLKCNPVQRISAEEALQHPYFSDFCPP

Cc1cc([C@@H](C)Nc2ccccc2C(=O)O)c2nc(N3CCOCC3)cc(=O)n2c1
kinase still bound, per cent of control [1]: 100%
kinase still bound, per cent of control (AKT3 (human)): 80%
kinase still bound, per cent of control (BMX (human)): 82%
kinase still bound, per cent of control (CDK5 (human)): 100%
kinase still bound, per cent of control (CDKL3 (human)): 96%
kinase still bound, per cent of control (CLK4 (human)): 100%
kinase still bound, per cent of control (CSNK1A1L (human)): 94%
kinase still bound, per cent of control (CSNK1E (human)): 92%
kinase still bound, per cent of control (CSNK2A1 (human)): 66%
kinase still bound, per cent of control [2]: 100%
kinase still bound, per cent of control (EPHA3 (human)): 85%
kinase still bound, per cent of control (EPHA8 (human)): 82%
kinase still bound, per cent of control (ERBB3 (human)): 100%
kinase still bound, per cent of control (FER (human)): 81%
kinase still bound, per cent of control [3]: 100%
kinase still bound, per cent of control (KIT (human)): 69%
kinase still bound, per cent of control (MAP2K2 (human)): 98%
kinase still bound, per cent of control (MAP3K11 (human)): 95%
kinase still bound, per cent of control (MAP3K7 (human)): 100%
kinase still bound, per cent of control (MAP4K3 (human)): 99%
kinase still bound, per cent of control (MARK4 (human)): 100%
kinase still bound, per cent of control (MINK1 (human)): 100%
kinase still bound, per cent of control (MYLK (human)): 43%
kinase still bound, per cent of control (MYLK2 (human)): 94%
kinase still bound, per cent of control (MYLK3 (human)): 82%
kinase still bound, per cent of control (MYLK4 (human)): 75%
kinase still bound, per cent of control (NLK (human)): 100%
kinase still bound, per cent of control (PAK2 (human)): 100%
kinase still bound, per cent of control (PHKG1 (human)): 100%
kinase still bound, per cent of control (PKN2 (human)): 74%
kinase still bound, per cent of control (PKN3 (M.tuberculosis)): 100%
kinase still bound, per cent of control (PRKCD (human)): 100%
kinase still bound, per cent of control [4]: 99%
kinase still bound, per cent of control (RIPK2 (human)): 52%
kinase still bound, per cent of control (RPS6KA2 KD2 (human)): 100%
kinase still bound, per cent of control (SGK110 (human)): 68%
kinase still bound, per cent of control (SIK2 (human)): 90%
kinase still bound, per cent of control (STK17B (human)): 100%
kinase still bound, per cent of control (TIE1 (human)): 100%
kinase still bound, per cent of control (TLK1 (human)): 100%
kinase still bound, per cent of control (TSSK1B (human)): 79%
kinase still bound, per cent of control (WEE1 (human)): 88%
